IC50 data for 7 compounds are collected here from BindingDB's records for doi:10.7270/Q2W957MN (The Scripps Research Institute Molecular Screening Center, 2010).

This assay has as its target T1, Trans-activator protein BZLF1 (Epstein-Barr virus (strain B95-8), UniProt P03206).
T1 sequence (P03206 whole entry): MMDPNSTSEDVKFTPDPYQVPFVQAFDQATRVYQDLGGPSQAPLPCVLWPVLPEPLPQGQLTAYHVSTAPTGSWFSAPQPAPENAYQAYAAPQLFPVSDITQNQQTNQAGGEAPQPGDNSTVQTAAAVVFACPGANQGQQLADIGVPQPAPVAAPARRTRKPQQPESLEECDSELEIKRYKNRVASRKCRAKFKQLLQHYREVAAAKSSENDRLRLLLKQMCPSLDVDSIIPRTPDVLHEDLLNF
Description: EBV ZTA inhibitors, dose response, counter-screen for EBNA-1 inhibitor project, biochemical, fluorescence polarization, Epstein-Barr virus, 1536-well (AID 2377).

`O=C(Nc1nc2cc3c(cc2s1)OCCO3)c1ccc(-n2c(O)ccc2O)cc1` showed an IC50 of 15.1 µM.
The figure for `COc1ccc(-n2cc(O)c(-c3nc4ccccc4s3)c2N)cc1` is > 111 µM.
As to `COc1cc(-c2nc3n(n2)C(c2cccc(OC)c2OC)C2C(=O)CCCC2=N3)cc(OC)c1OC` (configuration not stated), the IC50 is > 111 µM.
Take `C=c1cc2[nH]c(=O)c(=Cc3cn(C)c4ccccc34)c(=N)n2o1` [(6Z)-7-imino-2-methyl-6-[(1-methylindol-3-yl)methylidene]-[1,2]oxazolo[2,3-a]pyrimidin-5-one]: the IC50 is > 111 µM.
As for `COc1cccc(-n2cc(O)c(-c3nc4ccccc4c(=O)[nH]3)c2N)c1` [MLS000075886], the IC50 is > 111 µM.
Regarding `O=[N+]([O-])c1cccc(CN=Nc2nc(NCc3ccccc3)nc(N3CCOCC3)n2)c1` [SMR000174986], the IC50 is > 111 µM.
Turning to `CN1C(=O)/C(=N\NC(=O)c2cc(-c3cccs3)nc3ccccc23)c2ccccc21` [SMR000242891], the IC50 was > 111 µM.
